# Publication PMC12152883, “Bile acids inhibit equilibrative adenosine transport to alter adenosine receptor signaling in cholestasis” (The Journal of Biological Chemistry, 2025)
# Where “and” joins values, the source holds several entries; their conditions need not be identical. Equal values may be shown once.
# How the values were obtained:
# ENT3 = molecular target: T1, ENT3 (Homo sapiens, UniProt Q9BZD2); assay: Inhibition of 3H-nucleoside influx by BAs in ENT3-expressing Xenopus oocytes; assay type: cell-based; settings: for IC50 / ENT3 % uptake inhibition (Ado): 3H-Ado 20 μM, sodium-free buffer; for IC50: read-out: ENT3 IC50 (Ado uptake)
# T1 construct: plasma membrane–directed ENT3 with a truncated N-terminus (that harbors lysosomal targeting motif); expressed in transfected cells; host or cells: Xenopus laevis oocytes injected with in vitro-transcribed mRNA from pOX-Δ36hENT3
# T1 sequence (Q9BZD2 with tags, fused parts or gaps): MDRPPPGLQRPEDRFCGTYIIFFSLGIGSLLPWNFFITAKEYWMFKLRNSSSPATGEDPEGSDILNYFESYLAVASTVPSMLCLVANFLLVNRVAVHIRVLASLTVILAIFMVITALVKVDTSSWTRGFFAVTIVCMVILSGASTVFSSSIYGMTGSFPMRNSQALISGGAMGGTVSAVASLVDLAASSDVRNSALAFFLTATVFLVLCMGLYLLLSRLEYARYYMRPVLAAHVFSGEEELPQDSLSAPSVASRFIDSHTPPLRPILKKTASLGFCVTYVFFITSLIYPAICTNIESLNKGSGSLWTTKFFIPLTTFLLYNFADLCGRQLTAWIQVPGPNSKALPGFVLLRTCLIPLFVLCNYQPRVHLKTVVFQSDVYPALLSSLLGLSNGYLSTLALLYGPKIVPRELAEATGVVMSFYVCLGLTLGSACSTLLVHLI
# Description: (§1) We expressed individual ENTs (ENT1, ENT2, and ENT3) in X. laevis oocytes (as described above) and analyzed the Ado influx from each of the ENTs in the presence of different BAs to better understand whether the inhibition profiles differ across human ENTs. […] We also conducted an analysis of the concentration-dependent inhibition of Ado transport to estimate the IC50 values of the BAs (Fig. 4, D–F and Table 2).
# (§2) Inhibition of Ado influx in H2O- and ENT-injected oocytes by treatment with different BAs at 100 μM. D–F, concentration-dependent inhibition of Ado influx in ENT-injected oocytes by different BAs. The bars represent the mean ± SD (n = 8–12 oocytes). A representative experiment from 3 to 5 independent experiments is presented. Statistical analysis was performed using one-way ANOVA with Dunnett’s multiple comparisons test; ∗p < 0.032, ∗∗p < 0.0021, ∗∗∗∗p < 0.0001.
# (§3) The generated pOX expression constructs were linearized with either the Not1 or Sac1 restriction enzymes. The digested products were purified via phenol‒chloroform extraction. The mRNAs were synthesized using mMESSAGE mMACHINE (Ambion) transcription kits according to the manufacturer’s instructions. The mRNAs were purified via lithium precipitation. Oocytes were procured from Ecocyte. Prior to experiments, procured oocytes were defolliculated by treating with collagenase A-OR II solution followed by washing with Barth’s solution. Following microscopic verification, selected oocytes were incubated to recover overnight at 25 °C in a shaker incubator. Fifty nanoliters (400–800 ng/μl) of equal amounts of mRNAs were injected into defolliculated oocytes the next day. Expression of plasmids was analyzed after RNA isolation from oocyte extracts and conducting qPCR analysis with gene-specific primers as described earlier ([30]). The injected oocytes were incubated at 15 °C for 24 h before transport assays were performed. […] Uptake was terminated by washing the oocytes three times with arrest buffer containing 20 mM uridine. Individual oocytes were shaken overnight in 10% SDS for complete dissolution, and then the radioactivity was quantified with a Beckman liquid scintillation counter. The data are presented as the mean ± SD (n = 8–12 oocytes). A representative experiment from 3 to 5 independent experiments is presented.
# ENT2 [1] = molecular target: T2, ENT2 (Homo sapiens, UniProt Q14542); assay: Inhibition of 3H-nucleoside influx by BAs in ENT2-expressing Xenopus oocytes; assay type: cell-based; design: expressed in transfected cells; host or cells: Xenopus laevis oocytes injected with in vitro-transcribed capped mRNA from pOX-hENT2; settings: for IC50 / ENT2 % uptake inhibition (Ado): 3H-Ado 20 μM, sodium-free buffer; for IC50: read-out: ENT2 IC50 (Ado uptake)
# T2 sequence (Q14542 1-456): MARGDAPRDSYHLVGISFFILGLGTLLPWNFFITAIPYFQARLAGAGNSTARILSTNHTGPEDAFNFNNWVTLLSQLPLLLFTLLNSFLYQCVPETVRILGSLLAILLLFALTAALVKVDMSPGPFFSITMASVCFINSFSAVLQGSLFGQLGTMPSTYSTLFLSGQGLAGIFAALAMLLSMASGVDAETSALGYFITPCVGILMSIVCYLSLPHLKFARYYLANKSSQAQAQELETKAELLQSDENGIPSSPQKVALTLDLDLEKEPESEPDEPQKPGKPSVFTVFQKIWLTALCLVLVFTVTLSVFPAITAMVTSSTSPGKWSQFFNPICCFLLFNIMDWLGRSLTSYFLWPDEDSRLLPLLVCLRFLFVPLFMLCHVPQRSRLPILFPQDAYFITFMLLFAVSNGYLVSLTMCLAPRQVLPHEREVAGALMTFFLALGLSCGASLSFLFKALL
# Description: as §1, §2, §3
# ENT1 [2] = molecular target: T3, ENT1 (Homo sapiens, UniProt Q99808); assay: Inhibition of 3H-nucleoside influx by BAs in ENT1-expressing Xenopus oocytes; assay type: cell-based; settings: 3H-Ado 20 μM, sodium-free buffer; for IC50: read-out: ENT1 IC50 (Ado uptake); for ENT1 % uptake inhibition (Ado): BA 100 μM
# T3 construct: The complete ORF of ENT1 (amplified using forward primer); expressed in transfected cells; host or cells: Xenopus laevis oocytes injected with in vitro-transcribed capped mRNA from pOX-hENT1
# T3 sequence (Q99808 1-456): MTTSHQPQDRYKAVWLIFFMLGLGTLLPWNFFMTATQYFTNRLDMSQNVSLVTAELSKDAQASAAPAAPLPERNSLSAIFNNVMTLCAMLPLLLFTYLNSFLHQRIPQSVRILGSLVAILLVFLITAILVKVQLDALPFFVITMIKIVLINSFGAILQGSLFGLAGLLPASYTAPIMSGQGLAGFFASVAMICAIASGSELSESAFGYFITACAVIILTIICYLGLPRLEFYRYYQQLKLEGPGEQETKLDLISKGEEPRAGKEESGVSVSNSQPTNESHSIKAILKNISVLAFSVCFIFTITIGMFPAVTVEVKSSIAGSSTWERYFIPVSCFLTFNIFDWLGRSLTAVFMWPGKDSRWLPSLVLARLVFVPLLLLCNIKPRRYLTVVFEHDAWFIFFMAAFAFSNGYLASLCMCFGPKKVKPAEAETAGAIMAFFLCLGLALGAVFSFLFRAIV
# Description: as §1, §2, §3
# ENT2 [3] = settings: classical nucleoside transporter inhibitors; no reference given; cited from earlier work
# ENT1 [4] = settings: classical nucleoside transporter inhibitors; no reference given; cited from earlier work
# ENT2 [5] = molecular target: T2, ENT2; assay: Inhibition of 3H-CA transport by ENT2 in oocytes by nucleoside transporter inhibitors; assay type: cell-based; design: expressed in transfected cells; host or cells: Xenopus laevis oocytes injected with in vitro-transcribed capped mRNA from pOX-hENT2; settings: inhibitor at 10 μM (Fig. 2D legend 100 μM), pH 7.4
# Method: Next, we asked whether the transport patterns of the above BAs mediated by ENT2 are similar to those of nucleoside transport in terms of pharmacological inhibition or pH-dependent properties.
# Oocytes were procured from Ecocyte. Prior to experiments, procured oocytes were defolliculated by treating with collagenase A-OR II solution followed by washing with Barth’s solution. Following microscopic verification, selected oocytes were incubated to recover overnight at 25 °C in a shaker incubator. Fifty nanoliters (400–800 ng/μl) of equal amounts of mRNAs were injected into defolliculated oocytes the next day. […] The injected oocytes were incubated at 15 °C for 24 h before transport assays were performed. The uptake of radiolabeled substrates was measured after a 30 min incubation in transport buffer (100 mM NaCl, 2 mM KCl, 1 mM CaCl2, 1 mM MgCl2, and 10 mM Hepes, pH 7.4) at room temperature. Uptake was terminated by washing the oocytes three times with arrest buffer containing 20 mM uridine. Individual oocytes were shaken overnight in 10% SDS for complete dissolution, and then the radioactivity was quantified with a Beckman liquid scintillation counter. The data are presented as the mean ± SD (n = 8–12 oocytes). A representative experiment from 3 to 5 independent experiments is presented.
# ENT2 [6] = molecular target: T2, ENT2; assay: BA transport by ENT2-injected oocytes quantified by LC-MS/MS; assay type: cell-based; design: expressed in transfected cells; host or cells: Xenopus laevis oocytes injected with in vitro-transcribed capped mRNA from pOX-hENT2; settings: pH 7.4, p < 0.001 compared with water-injected oocytes
# Method: Therefore, we studied several different BAs and used a liquid chromatography–tandem mass spectrometry (LC‒MS/MS) method to quantify the transport activity of H2O-injected and ENT2 mRNA-injected oocytes using TCA as a positive control. […] We subsequently tested the ability of ENT2 to transport BAs at different physiological pH values ranging from pH 5.5 to pH 7.4 by varying the pH of the transport buffers in which the assay was conducted.
# The mass spectrometric validation of the transport of all metabolites was performed with oocytes using a previously reported method ([24]). […] After an incubation at 4 °C for 24 h, the samples were centrifuged at 20,000g for 10 min, and the supernatants were collected. The samples (10 μl) were injected into a Thermo Scientific Vanquish UPLC system interfaced with a Thermo Scientific TSQ Quantiva triple-stage quadrupole mass spectrometer equipped with an H-ESI ion source. MS detection was conducted in negative ionization mode, and the transitions monitored for each metabolite are listed in Sup. Table S2. The operational mass spectrometric parameters included a capillary voltage of 4.5 kV; sheath gas of 35 arbitrary units; auxiliary gas of 10 arbitrary units; sweep gas of two arbitrary units; ion transfer tube temperature of 350 °C; vaporizer temperature of 450 °C; dwell time of 50 ms per transition; collision energy of 5 V; and collision-induced dissociation gas of 1.5 mTorr. Chromatographic separation was performed on a Kinetex […] (100 × 2.1 mm; 1.7 μm particle size) from Phenomenex. The mobile phase consisted of solvent A: water (0.1% formic acid) and solvent B: acetonitrile (0.1% formic acid). The flow rate was set at 0.3 ml/min, and the autosampler was maintained at 4 °C throughout the analysis.
SMILES,IC50 (ENT3) [µM],ENT3 % uptake inhibition (Ado) (ENT3; BA 100 μM) [%],IC50 (ENT2 [1]) [µM],ENT2 % uptake inhibition (Ado) (ENT2 [1]; BA 100 μM),IC50 (ENT1 [2]) [µM],ENT1 % uptake inhibition (Ado) (ENT1 [2]) [%],transport by ENT2 mRNA-injected vs water-injected oocytes (LC-MS/MS) (ENT2 [6]),other results
"C[C@H](CCC(=O)NCCS(=O)(=O)O)[C@H]1CC[C@H]2[C@@H]3[C@@H](O)C[C@@H]4C[C@H](O)CC[C@]4(C)[C@H]3CC[C@]12C [TUDCA, tauroursodeoxycholic acid]",35.3 ± 16.4,62.6,4.9 ± 1.1,77% and 77.30%,204 ± 63,42.72,,"inhibition of guanosine transport activity of ENT3 (ENT3; BA 100 μM, 3H-guanosine 20 μM): inhibited"
OCCN(CCO)c1nc(N2CCCCC2)c2nc(N(CCO)CCO)nc(N3CCCCC3)c2n1 [dipyridamole],,,,,,,,Ki (ENT2 [3]): ~10 µM; Ki (ENT1 [4]): ~0.01 µM; reduction of 3H-CA transport by ENT2 compared with uninhibited control (ENT2 [5]): 34.57%
C[C@H](CCC(=O)NCCS(=O)(=O)O)[C@H]1CC[C@H]2[C@@H]3[C@@H](O)[C@@H](O)[C@@H]4C[C@H](O)CC[C@]4(C)[C@H]3CC[C@]12C [tauro-beta-muricholic acid],,,,,,,significant transport,
"O=[N+]([O-])c1ccc(CSc2ncnc3c2ncn3C2OC(CO)C(O)C2O)cc1 (centres unmarked) [NBMPR, nitrobenzylthioinosine]",,,,,,,,Ki (ENT2 [3]): ~10 µM; Ki (ENT1 [4]): ~0.01 µM; reduction of 3H-CA transport by ENT2 compared with uninhibited control (ENT2 [5]): 53.38%
"C[C@H](CCC(=O)NCC(=O)O)[C@H]1CC[C@H]2[C@@H]3[C@H](O)C[C@@H]4C[C@H](O)CC[C@]4(C)[C@H]3C[C@H](O)[C@]12C [GCA, glycocholic acid]",10.7 ± 4.6,68.0,16.7 ± 3.9,72.22%,39.5 ± 8.5,35.05,significant transport,
C[C@H](CCC(=O)O)[C@H]1CC[C@H]2[C@@H]3[C@H](O)[C@H](O)[C@@H]4C[C@H](O)CC[C@]4(C)[C@H]3CC[C@]12C [hyocholic acid],,,,,,,significant transport,
C[C@H](CCC(=O)O)[C@H]1CC[C@H]2[C@@H]3[C@@H](O)[C@@H](O)[C@@H]4C[C@H](O)CC[C@]4(C)[C@H]3CC[C@]12C [beta-muricholic acid],,,,,,,significant transport,
COc1cc(C(=O)OCCCN2CCCN(CCCOC(=O)c3cc(OC)c(OC)c(OC)c3)CC2)cc(OC)c1OC [dilazep],,,,,,,,Ki (ENT2 [3]): ~10 µM; Ki (ENT1 [4]): ~0.01 µM; reduction of 3H-CA transport by ENT2 compared with uninhibited control (ENT2 [5]): 38.02%
C[C@H](CCC(=O)O)[C@H]1CC[C@H]2[C@@H]3[C@@H](O)C[C@@H]4C[C@H](O)CC[C@]4(C)[C@H]3CC[C@]12C [ursodeoxycholic acid],,,,,,,significant transport,
C[C@H](CCC(=O)O)[C@H]1CC[C@H]2[C@@H]3CC[C@@H]4C[C@H](O)CC[C@]4(C)[C@H]3CC[C@]12C [LCA],88.8 ± 27.4,71.2,18.4 ± 4.5,71.04%,66.9 ± 15.4,32.59,,
"C[C@H](CCC(=O)O)[C@H]1CC[C@H]2[C@@H]3[C@H](O)C[C@@H]4C[C@H](O)CC[C@]4(C)[C@H]3CC[C@]12C [CDCA, chenodeoxycholic acid]",0.3 ± 0.1,77.0,22.9 ± 4.9,66.07%,24.3 ± 7,69.12,significant transport,"inhibition of guanosine transport mediated by ENT2 (ENT2 [1]; BA 100 μM, 3H-guanosine 20 μM): not statistically significant"
